Laboratory results from PMC10118286 (Journal of medicinal chemistry, 2021).

Key:
[1] = tested on: MDA-MB-468 cells; details: read-out: Anti-proliferative active (IC50, μM) MDA-MB-468; cell viability assay for 24 h
[2] = tested on: MDA-MB-231 cells; details: read-out: Anti-proliferative active (IC50, μM) MDA-MB-231; cell viability assay for 24 h
[3] = biological target: CK2α (Homo sapiens, UniProt P68400); test: CETSA in MDA-MB-231 cells, CK2α; type: cell-based; details: 5 μM, 6 h
[4] = tested on: MDA-MB-231R cells; test: Antiproliferative activity toward compound 1-resistant MDA-MB-231R cells; details: p < 0.01
[5] = tested on: MDA-MB-468 cells; test: Annexin-V/PI flow cytometry apoptosis, MDA-MB-468; type: cell-based; details: 24 h
[6] = tested on: p-BRD4^S492; test: Western blot of p-BRD4 S492, MDA-MB-231 cells; type: cell-based; details: 0, 2.5, 5, and 10 μM for 24 h
[7] = tested on: MDA-MB-231 cells; test: Annexin-V/PI flow cytometry apoptosis, MDA-MB-231; type: cell-based; details: 24 h
[8] = biological target: T1, BRD4 (Homo sapiens, UniProt O60885); test: CETSA in MDA-MB-231 cells, BRD4; type: cell-based; details: 5 μM, 6 h
[9] = tested on: MDA-MB-231 cells; test: Colony formation assay, MDA-MB-231; type: cell-based; details: 0, 2.5, 5, and 10 μM for 7 days
[10] = tested on: MDA-MB-468 cells; test: Colony formation assay, MDA-MB-468; type: cell-based; details: 0, 2.5, 5, and 10 μM for 7 days
[11] = tested on: MDA-MB-468 cells; test: Autophagy assay; type: cell-based; details: 5 μM
[12] = tested on: p-BRD4^S492; test: Western blot of p-BRD4 S492, MDA-MB-468 cells; type: cell-based; details: 0, 2.5, 5, and 10 μM for 24 h
[13] = tested on: MDA-MB-468 xenograft
[14] = tested on: MCF-10A cells; test: Cell viability; type: cell-based
[15] = tested on: CK1; details: read-out: CK1 inhibitory profile (IC50); triplicate, mean ± SD
[16] = Pharmacokinetic study in SD rats; type: in vivo, Sprague–Dawley (SD) rats
[17] = tested on: MDA-MB-231 xenograft; test: MDA-MB-231 xenograft tumor model; type: in vivo, nude mice (BALB/c)
[18] = tested on: MDA-MB-231 cells; test: Autophagy assay; type: cell-based; details: 5 μM
[19] = biological target: T1, BRD4; test: BRD4 inhibition assay; type: binding
[20] = biological target: T2, CK2 (Homo sapiens, UniProt P68400); details: 10 μM
T2 sequence (P68400 whole entry): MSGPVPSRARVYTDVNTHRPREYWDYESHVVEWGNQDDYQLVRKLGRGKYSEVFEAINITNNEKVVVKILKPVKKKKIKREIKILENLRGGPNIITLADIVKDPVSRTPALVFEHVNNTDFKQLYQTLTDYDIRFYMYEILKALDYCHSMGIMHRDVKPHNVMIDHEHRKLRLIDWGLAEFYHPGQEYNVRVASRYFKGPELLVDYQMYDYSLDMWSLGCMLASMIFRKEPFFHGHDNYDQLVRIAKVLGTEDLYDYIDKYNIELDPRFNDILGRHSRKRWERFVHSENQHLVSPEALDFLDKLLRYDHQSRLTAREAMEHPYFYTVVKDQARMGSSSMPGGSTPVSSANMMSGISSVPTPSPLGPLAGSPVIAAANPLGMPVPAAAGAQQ

[21] = biological target: T2, CK2; test: biochemical; details: read-out: Kinase inhibitory activity (1 μM, %) CK2
[22] = 25 and 50 mg/kg, intragastric, 19 days
[23] = intragastric, once a day for 19 days

CK2α, sequence (P68400 whole entry): as above

2-(4-(5,7-Dimethoxy-4-oxo-1,4-dihydroquinazolin-2-yl)-2,6-dimethylphenoxy)-N-morpholinoacetamide [Compound 42b]
IC50 [1]: 18.5 ± 1.23 µM
IC50 [2]: 20.6 ± 0.62 µM

6-Methoxy-2-(2-methoxyphenyl)-4H-chromen-4-one [Compound 33c]
IC50 [1]: > 50 µM
IC50 [2]: > 50 µM

COc1cc(OC)c2c(=O)[nH]c(-c3ccc(OCC(=O)Nc4ccc(N5CCN(C)CC5)c(Cl)c4)cc3)nc2c1 [Compound 44e, N-(3-Chloro-4-(4-methylpiperazin-1-yl)phenyl)-2-(4-(5,7-dimethoxy-4-oxo-1,4-dihydroquinazolin-2-yl)phenoxy)acetamide]
thermal stability of CK2α (CETSA) [3]: improved the thermal stability
anticancer activity against compound 1-resistant cells [4]: able to alleviate drug resistance of 1
apoptosis (Annexin-V/PI) [5]: dose-dependently induced apoptosis
level of p-BRD4^S492 [6]: dose-dependently downregulated
apoptosis (Annexin-V/PI) [7]: dose-dependently induced apoptosis
thermal stability of BRD4 (CETSA) [8]: improved the thermal stability
colony formation [9]: dose-dependently suppressed growth and reduced the number of colonies
colony formation [10]: dose-dependently suppressed growth and reduced the number of colonies
autophagy induction [11]: significantly induced autophagy
level of p-BRD4^S492 [12]: dose-dependently downregulated
tumor growth inhibition (in words) [13, 22]: dose-dependent tumor growth inhibition
HE staining of heart, liver, spleen, lung, and kidney tissues ([13]; after 19 days of treatment): No significant morphologic or structural changes
mouse body weight and death [13, 23]: No significant changes in mouse body weight and death
toxicity to the normal breast cell line MCF-10A [14]: did not have obvious toxicity
IC50 [15]: > 10 µM
CL ([16]; iv 1 mg/kg): 57.4 ± 1.3 (mL/min)/kg
time at which the highest concentration was observed ([16]; po 10 mg/kg): 5.14 ± 0.71 h
tumor growth inhibition (in words) [17, 22]: dose-dependent tumor growth inhibition
Ki-67 immunohistochemical staining in tumor tissue ([17]; 25 or 50 mg/kg): significantly inhibit the proliferation
expression of c-Myc and p-AKT^S129 in xenograft tumor tissues (IHC) ([17]; 25 or 50 mg/kg, compared with control group): significantly reduced
HE staining of heart, liver, spleen, lung, and kidney tissues ([17]; after 19 days of treatment): No significant morphologic or structural changes
mouse body weight and death [17, 23]: No significant changes in mouse body weight and death
autophagy induction [18]: significantly induced autophagy

Cc1sc2c(c1C)C(c1ccc(Cl)cc1)=N[C@@H](CC(=O)OC(C)(C)C)c1nnc(C)n1-2 [Compound 1, JQ1, reference compound]
inhibition at 1 µM ([19]; read-out: Kinase inhibitory activity (1 μM, %) BRD4): 97 ± 1.32%

N-(3-Chloro-4-(4-methylpiperazin-1-yl)phenyl)-2-(4-(7-methyl-4-oxo-1,4-dihydroquinazolin-2-yl)phenoxy)acetamide [Compound 44n]
IC50 [1]: 16.2 ± 1.83 µM
IC50 [2]: 17.4 ± 0.56 µM

2-(4-(5,7-Dimethoxy-4-oxo-1,4-dihydroquinazolin-2-yl)-phenoxy)-N-morpholinoacetamide [Compound 42a]
IC50 [1]: 12.5 ± 0.87 µM
IC50 [2]: 14.7 ± 1.55 µM

2-(4-(5,7-Dimethoxy-4-oxo-1,4-dihydroquinazolin-2-yl)-phenoxy)-N-(4-methylpiperazin-1-yl)acetamide [Compound 42g]
IC50 [1]: 13.7 ± 0.23 µM
IC50 [2]: 12.8 ± 1.72 µM

COc1cc(OC)c2c(=O)[nH]c(-c3ccc(OCC(=O)O)cc3)nc2c1 [Compound 26, 2-(4-(5,7-Dimethoxy-4-oxo-1,4-dihydroquinazolin-2-yl)-phenoxy)acetic Acid]
inhibitory ratio on CK2 [20]: 45%
inhibitory ratio on BRD4 ([19]; 10 μM): 63%

N-(3-Chloro-4-(4-methylpiperazin-1-yl)phenyl)-2-(4-(6-fluoro-4-oxo-1,4-dihydroquinazolin-2-yl)phenoxy)acetamide [Compound 44j]
IC50 [1]: 7.51 ± 1.13 µM
IC50 [2]: 6.94 ± 0.68 µM

N-(3-Chloro-4-(4-methylpiperazin-1-yl)phenyl)-2-(4-(6-methoxy-4-oxo-1,4-dihydroquinazolin-2-yl)phenoxy)acetamide [Compound 44k]
IC50 [1]: 16.4 ± 0.85 µM
IC50 [2]: 14.6 ± 0.77 µM

COc1cc(OC)c2c(=O)[nH]c(-c3cc(C)c(OCC(=O)Nc4nc5ccccc5[nH]4)c(C)c3)nc2c1 [Compound 42j, N-(1H-Benzo[d]imidazol-2-yl)-2-(4-(5,7-dimethoxy-4-oxo-1,4-dihydroquinazolin-2-yl)-2,6-dimethylphenoxy)acetamide]
inhibition at 1 µM [21]: 25.6 ± 6.57%

N-(3-Chloro-4-(4-methylpiperazin-1-yl)phenyl)-2-(4-(6-chloro-4-oxo-1,4-dihydroquinazolin-2-yl)phenoxy)acetamide [Compound 44l]
IC50 [1]: 15.3 ± 0.72 µM
IC50 [2]: 14.4 ± 0.58 µM

N-(3-Chloro-4-(4-methylpiperazin-1-yl)phenyl)-2-(4-(7-chloro-4-oxo-1,4-dihydroquinazolin-2-yl)phenoxy)acetamide [Compound 44m]
IC50 [1]: 6.23 ± 0.55 µM
IC50 [2]: 5.21 ± 0.82 µM
